Data reported in US20010044404A1, “Cleaning process and composition” (3M Innovative Properties Company, priority 1995, published 2001).

Experiments:
[1] = Pump oil removal with boiling mixed terpenes/perfluorocompound mixture; conditions: boiling mixture 40 volume % mixed terpenes, 60 volume % fluorinated component
Description: The above-described test coupon was dipped into DuoSeal Pump Oil (available from Sargent-Welch), was immersed in a boiling mixture of 40 volume % of a solvating agent comprising mixed terpenes having a boiling range of 243-274° C. and 60 volume % of alkoxy-substituted perfluorocompound (a cleaning composition of the invention), was cooled for 60 seconds, and was then immersed in mixture vapor for 30 seconds. The percent oil removal was determined in the above-described manner.

[2] = Pump oil removal with n-C6H14/perfluorocompound mixture at room temperature, ultrasonic; conditions: 40 volume % n-C6H14, 60 volume % fluorinated component, 60 seconds
Description: The above-described test coupon was dipped into DuoSeal Pump Oil (available from Sargent-Welch) and was then immersed in a mixture of 40 volume % n-C6H14 and 60 volume % alkoxy-substituted perfluorocompound (a cleaning composition of the invention) for 60 seconds at room temperature with ultrasonic agitation. The percent oil removal was determined in the above-described manner.

[3] = Flash point testing ASTM D3278-89; type: physicochemical
Description: The alkoxy-substituted perfluorocompounds C4F9OCH3, C4F9OC2H5, and c-C6F11OCH3 were tested for flash point by the standard method defined by ASTM D3278-89.

[4] = Stability in the presence of acid (96% sulfuric acid, GLC); type: physicochemical
Description: To assess hydrolytic stability under acidic conditions, C4F9OCH3 (15 g, 0.06 mole) was combined with sulfuric acid (10 g of 96% by weight, 0.097 mole) in a 50 mL flask containing a stir bar and fitted with a reflux condenser. The resulting mixture was stirred for 16 hours at room temperature, and then the resulting upper fluorochemical phase was separated from the resulting lower sulfuric acid phase. […] Chem. 49, 4007 (1984), which states that “[f]luorine atoms attached to carbon which also bears an alkyl ether group are known to be labile to electrophilic reagents. They are readily hydrolyzed in concentrated sulfuric acid, thus providing a route to some esters of fluoroacids.”

[5] = Mineral oil removal with boiling methyl decanoate/perfluorocompound mixture; conditions: boiling mixture 40 volume % methyl decanoate, 60 volume % perfluorocompound
Description: The above-described test coupon was dipped in white heavy mineral oil (available from Aldrich Chemical), was immersed in a boiling single-phase mixture of 40 volume % of a solvating agent comprising essentially methyl decanoate and 60 volume % of alkoxy-substituted perfluorocompound (a cleaning composition of the invention) for 60 seconds, was cooled for 60 seconds, and was then immersed in mixture vapor for 30 seconds. The percent oil removal was determined in the above-described manner.

[6] = Hydrolytic stability under more severely basic conditions (aqueous KOH reflux); type: physicochemical; conditions: refluxed at 58° C. for 19 hours
Description: To assess hydrolytic stability under more severely basic conditions, C4F9OCH3 (125 g of 99.8% purity, 0.5 mole) was combined with potassium hydroxide ([…], dissolved in 26.1 g water) in a 250 mL flask equipped with an overhead stirrer, a condenser, and a thermometer, and the resulting solution was refluxed at 58° C. for 19 hours. Water (50 mL) was added to the solution after refluxing, and the resulting product was distilled. The lower fluorochemical phase of the resulting distillate was separated from the upper phase and was washed with water (100 mL) to yield 121.3 g of recovered C4F9OCH3, which was identical in purity and composition to the starting material (as shown by gas chromatography).

[7] = Mineral oil removal from aluminum coupon, sonication in solvent; conditions: sonicated 1 minute
Description: In the following Examples and Comparative Examples, the cleaning ability of the alkoxy-substituted perfluorocompounds used in the cleaning process of the invention was further evaluated. A 1.28 cm×1.28 cm×0.225 cm wire-wrapped, aluminum coupon was coated with white heavy mineral oil (available from Aldrich Chemical) by immersing the coupon in an oil-filled beaker. The initial amount of the oil on the coupon was determined by weighing it on an analytical balance to the nearest 0.1 mg. The coupon was immersed in a container of solvent and sonicated for 1 minute at the indicated temperature (see Table 3 below for the solvents and temperatures used). The coupon was then weighed again, and the results were recorded in Table 3 as percent oil removal.

[8] = Solvency properties: largest normal hydrocarbon alkane soluble at 50 percent by volume
Description: A number of potential solvents were tested for their ability to dissolve hydrocarbons of increasing molecular weight according to the procedure described in U.S. Pat. No. 5,275,669 (Van Der Puy et al.), the description of which is incorporated herein by reference. The data shown in Table 1 were obtained by determining the largest normal hydrocarbon alkane which was soluble in a particular solvent at a level of 50 percent by volume. The numbers in the Table correspond with the carbon number of the largest alkane, e.g., “8” refers to octane. Measurements were made from room temperature up to the boiling point of the solvent. For comparative purposes, hydrofluorocarbons (HFCs) and perfluorocarbons (PFCs) were also tested using this method.
Using essentially the above-described method, the solvency properties of other alkoxy-substituted perfluorocompounds were tested at room temperature.

[9] = Ability to dissolve halogenated oils (miscibility); type: physicochemical; conditions: room temperature
Description: The ability of alkoxy-substituted perfluorocompounds to dissolve several halogenated oils was determined by adding a measured amount of oil to alkoxy-substituted perfluorocompound until the resulting mixture became turbid or phase-split. […] The results (shown in Table 12) indicate that alkoxy-substituted perfluorocompounds have very high ability to dissolve halogenated oils. Thus, the perfluorocompounds can be used as carrier solvents for halogenated oils in the deposition of coatings of such oils on substrate surfaces.

[10] = Stability in the presence of base: aqueous NaOAc, fluoride ion measurement; type: physicochemical; conditions: 10 g with 10 g 0.1M NaOAc, 110° C., 16 hours
Description: To assess hydrolytic stability, a ten gram sample of alkoxy-substituted perfluorocompound was combined with 10 g of 0.1M NaOAc and sealed in a 2.54 cm (internal diameter) by 9.84 cm Monel™ 400 alloy (66% nickel, 31.5% copper, and 1.2% iron and several minor components) tube (available from Paar Instrument Co. of Moline, Ill. as Part Number 4713cm). The tube was heated at 110° C. in a forced air convection oven for 16 hours. After cooling to room temperature, a 1 mL sample of the tube contents was diluted with 1 mL of total ionic strength adjustment buffer (TISAB, available from Orion Research, Inc., a mixture of 1,2-cyclohexylene dinitrilotetraacetic acid, deionized water, sodium acetate, sodium chloride, and acetic acid). The concentration of fluoride ion (resulting from any reaction of the perfluorocompound with the aqueous NaOAc) was measured using an Orion Model 720A Coulombmeter with a F-specific electrode which had been previously calibrated using 0.5 and 500 ppm F^− solutions. Based on the measured fluoride ion concentration, the rate at which HF had been generated by reaction of the aqueous NaOAc with the perfluorocompound was calculated.

COC(F)(F)C(F)(F)C(F)(F)C(F)(F)F [Example C4F9OCH3, perfluorobutyl methyl ether]
Percent Soil Removed [1]: 86.4% | Percent Soil Removed [2]: 92.5% | Flash point [3]: no flash point | Stability in the presence of acid ([4]; 96% sulfuric acid, 16 hours at room temperature): stable in the presence of the acid | Stability in Presence of Acid: conversion to ester ([4]; neat ether, sulfuric acid as in Stability in the Presence of Acid section): no rxn. (0% | Percent Soil Removed [5]: 94.61% | Stability in the presence of base [6]: stable in the presence of the base | percent oil removal ([7]; 23 ° C.): 60.3% | percent oil removal ([7]; 50 ° C.): 98.7% | percent oil removal ([7]; 60 ° C.): 99.9% | Largest Carbon Number of Longest Hydrocarbon Alkane to Dissolve ([8]; 20 weight % ether, 80 % n-butyl bromide): 21 | Largest Carbon Number of Longest Hydrocarbon Alkane to Dissolve ([8]; 20 weight % ether, 80 % t-DCE): 22 | Largest Carbon Number of Longest Hydrocarbon Alkane to Dissolve ([8]; 30 weight % ether, 70 % n-butyl bromide): 21 | Largest Carbon Number of Longest Hydrocarbon Alkane to Dissolve ([8]; 50 weight % ether, 50 % n-butyl bromide): 15 | Largest Carbon Number of Longest Hydrocarbon Alkane to Dissolve ([8]; 50 weight % ether, 50 % t-DCE): 16 | Largest Carbon Number of Longest Hydrocarbon Alkane to Dissolve ([8]; 80 weight % ether, 20 % n-butyl bromide): 11 | Largest Carbon Number of Longest Hydrocarbon Alkane to Dissolve ([8]; 80 weight % ether, 20 % t-DCE): 11 | Largest Carbon Number of Longest Hydrocarbon Alkane to Dissolve ([8]; 100 weight % ether, 0 % n-butyl bromide): 9 | Largest Carbon Number of Longest Hydrocarbon Alkane to Dissolve ([8]; 100 weight % ether, 0 % t-DCE): 9 | Miscibility with solute ([9]; Brayco 815Z Perfluoropolyether (MW about 10,000)): Miscible (greater than or equal to 50 percent by volume solubility at room temperature) | Miscibility with solute ([9]; Chlorotrifluoroethylene Fluid (Inland 41 Vacuum Pump Oil)): Miscible (greater than or equal to 50 percent by volume solubility at room temperature) | Miscibility with solute ([9]; Fomblin AM-2001 Functionalized Perfluoropolyether): Miscible (greater than or equal to 50 percent by volume solubility at room temperature) | HF Generation Rate [10]: 0.67 µg/g/h
